Several values for one entry are separate records, joined by “and”; a condition that tells them apart may be missing. Identical values can stand only once.
What was measured:
67 non-PDE molecules = test: off-target screen panel, overall statement; assay type: binding; conditions: all 67 non-PDE molecules of the panel
Adrenergic α2A = molecular target: T1, Adrenergic α2A (Homo sapiens, UniProt P08913); test: off-target screen panel; assay type: binding; conditions: Human recombinant, [^3H]Rauwolscine
T1 construct: purchased Eurofins Panlabs Discovery Services (Taiwan)

Endothelin ETB = molecular target: T2, Endothelin ETB (Homo sapiens, UniProt P24530); test: off-target screen panel; assay type: binding; conditions: Human recombinant, [^125I]Endothelin-1
T2 construct: purchased Eurofins Panlabs Discovery Services (Taiwan)
T2 sequence (P24530 27-442): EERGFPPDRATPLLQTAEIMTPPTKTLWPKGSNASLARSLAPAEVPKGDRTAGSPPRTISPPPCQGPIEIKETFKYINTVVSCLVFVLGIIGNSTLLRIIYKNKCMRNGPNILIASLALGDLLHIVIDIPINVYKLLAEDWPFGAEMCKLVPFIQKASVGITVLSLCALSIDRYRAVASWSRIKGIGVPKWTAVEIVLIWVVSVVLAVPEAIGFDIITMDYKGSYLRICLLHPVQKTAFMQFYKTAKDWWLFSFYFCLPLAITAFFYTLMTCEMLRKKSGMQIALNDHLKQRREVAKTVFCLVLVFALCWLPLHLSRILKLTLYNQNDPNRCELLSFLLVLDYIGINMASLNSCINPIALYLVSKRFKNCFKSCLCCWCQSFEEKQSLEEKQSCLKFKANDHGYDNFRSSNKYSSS

PDE7 = test: In vitro autoradiography of rat brain sections with [^11C]MTP38; assay type: binding, Sprague-Dawley rats; conditions: [^11C]MTP38 2 nM, unlabeled MTP38 10 μM, MTP-X 4 μM, MT-3014 40 nM
Description: In vitro autoradiography was performed using 20-μm-thick fresh-frozen brain sections derived from Sprague-Dawley rats and rhesus monkeys. The sections were preincubated for 10 min in 50 mM Tris-HCl buffer (pH 7.4) at room temperature. These samples were then incubated for 60 min at room temperature in fresh buffer containing [^11C]MTP38 (2 nM) with or without unlabeled MTP38 (10 μM), MTP-X (4 μM), or MT-3014 (40 nM). The concentrations of MTP-X and MT-3014 were more than 400-fold of reported IC50 values of these agents. After the incubation, the brain sections were immersed twice in cold buffer for 3 min, dipped in cold distilled water for 10 s, and dried with warm airflow. Then the sections were contacted with imaging plates (BAS-MS2025, Fujifilm, Tokyo, Japan) for 60 min. The imaging plates were scanned with an imaging plate reader (BAS5000, Fujifilm, Tokyo, Japan), and the images were analyzed with the MultiGuage software (ver. 3.0, Fujifilm, Tokyo, Japan).

Glutamate, NMDA, Glycine = Glutamate, NMDA, Glycine (Rattus norvegicus, UniProt P35439); test: off-target screen panel; assay type: binding; conditions: Rat cerebral cortex, [^3H]MDL 105,519
Muscarinic M3 = molecular target: T3, Muscarinic M3 (Homo sapiens, UniProt P20309); test: off-target screen panel; assay type: binding; conditions: Human recombinant, [^3H]N-Methylscopolamine
T3 construct: purchased Eurofins Panlabs Discovery Services (Taiwan)

PDE3A = molecular target: T4, PDE3A (Homo sapiens, UniProt Q14432); test: PDE isozyme inhibition screen panel (Eurofins Panlabs); assay type: biochemical; conditions: 1 μM of MTP38; human recombinant; read-out: Percent inhibition
T4 construct: purchased Eurofins Panlabs Discovery Services (Taiwan)
Description: (§1) In vitro inhibitory effects of MTP38 on 12 PDE isozymes (PDE1A, 2A, 3A, 4B1, 5A, 6, 7A, 7B, 8A1, 9A2, 10A2, and 11A4) were determined using a commercial screen panel at Eurofins Panlabs Discovery Services (Taiwan). The enzyme source was bovine retinal rod outer segments for PDE6 or human recombinants for the others. The inhibition percentage at 1 μM or half-maximal inhibitory concentration (IC50) value was calculated. All assays were conducted in duplicate. For IC50 determination, three independent runs were performed.

PDE1A = molecular target: T5, PDE1A (Homo sapiens, UniProt P54750); test: as above; assay type: biochemical; conditions: 1 μM of MTP38; human recombinant; read-out: Percent inhibition
T5 construct: purchased Eurofins Panlabs Discovery Services (Taiwan)
Description: as §1

PDE7A = molecular target: T6, PDE7A (Homo sapiens, UniProt Q13946); test: as above; assay type: biochemical; conditions: human recombinant; geometric mean of three independent experiments
T6 construct: purchased Eurofins Panlabs Discovery Services (Taiwan)
Description: as §1

PDE9A2 = molecular target: T7, PDE9A2 (Homo sapiens, UniProt O76083); test: as above; assay type: biochemical; conditions: 1 μM of MTP38; human recombinant; read-out: Percent inhibition
T7 construct: purchased Eurofins Panlabs Discovery Services (Taiwan)
Description: as §1

PDE8A1 = molecular target: T8, PDE8A1 (Homo sapiens, UniProt O60658); test: as above; assay type: biochemical; conditions: 1 μM of MTP38; human recombinant; read-out: Percent inhibition
T8 construct: purchased Eurofins Panlabs Discovery Services (Taiwan)
Description: as §1

PDE2A = molecular target: T9, PDE2A (Homo sapiens, UniProt O00408); test: as above; assay type: biochemical; conditions: human recombinant; geometric mean of three independent experiments
T9 construct: purchased Eurofins Panlabs Discovery Services (Taiwan)
T9 sequence (O00408 whole entry): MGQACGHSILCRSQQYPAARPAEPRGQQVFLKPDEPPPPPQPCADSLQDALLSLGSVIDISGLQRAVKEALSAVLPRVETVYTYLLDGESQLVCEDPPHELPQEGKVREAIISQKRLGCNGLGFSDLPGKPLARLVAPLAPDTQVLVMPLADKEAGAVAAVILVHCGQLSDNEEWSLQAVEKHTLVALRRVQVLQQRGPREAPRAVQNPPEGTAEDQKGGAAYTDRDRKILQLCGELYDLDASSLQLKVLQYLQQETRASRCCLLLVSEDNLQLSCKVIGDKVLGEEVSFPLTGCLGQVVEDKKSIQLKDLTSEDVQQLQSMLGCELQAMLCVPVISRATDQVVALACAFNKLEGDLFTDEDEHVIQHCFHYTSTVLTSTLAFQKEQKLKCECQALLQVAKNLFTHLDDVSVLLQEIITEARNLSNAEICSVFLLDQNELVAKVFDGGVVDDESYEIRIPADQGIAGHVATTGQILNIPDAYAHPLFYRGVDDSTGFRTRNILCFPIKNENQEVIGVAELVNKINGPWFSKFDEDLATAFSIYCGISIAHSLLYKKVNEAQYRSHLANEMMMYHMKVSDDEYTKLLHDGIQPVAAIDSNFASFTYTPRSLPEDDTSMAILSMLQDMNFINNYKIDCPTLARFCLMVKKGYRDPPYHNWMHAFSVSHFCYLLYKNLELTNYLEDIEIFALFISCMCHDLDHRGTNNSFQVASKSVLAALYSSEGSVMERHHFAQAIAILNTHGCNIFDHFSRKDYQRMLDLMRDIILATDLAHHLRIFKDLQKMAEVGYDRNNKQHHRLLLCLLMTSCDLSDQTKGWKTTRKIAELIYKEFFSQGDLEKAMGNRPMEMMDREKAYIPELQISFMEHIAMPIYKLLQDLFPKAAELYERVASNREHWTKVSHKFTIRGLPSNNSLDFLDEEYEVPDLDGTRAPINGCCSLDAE
Description: as §1

PDE6 = molecular target: T10, PDE6 (Bos taurus, UniProt P11541+P23439); test: as above; assay type: biochemical; conditions: 1 μM of MTP38; bovine retinal rod outer segments; read-out: Percent inhibition
T10 construct: The enzyme source was bovine retinal rod outer segments for PDE6; tissue Eurofins Panlabs Discovery Services (Taiwan); host or cells: bovine retinal rod outer segments
T10 sequence (P11541 2-856 limits assumed): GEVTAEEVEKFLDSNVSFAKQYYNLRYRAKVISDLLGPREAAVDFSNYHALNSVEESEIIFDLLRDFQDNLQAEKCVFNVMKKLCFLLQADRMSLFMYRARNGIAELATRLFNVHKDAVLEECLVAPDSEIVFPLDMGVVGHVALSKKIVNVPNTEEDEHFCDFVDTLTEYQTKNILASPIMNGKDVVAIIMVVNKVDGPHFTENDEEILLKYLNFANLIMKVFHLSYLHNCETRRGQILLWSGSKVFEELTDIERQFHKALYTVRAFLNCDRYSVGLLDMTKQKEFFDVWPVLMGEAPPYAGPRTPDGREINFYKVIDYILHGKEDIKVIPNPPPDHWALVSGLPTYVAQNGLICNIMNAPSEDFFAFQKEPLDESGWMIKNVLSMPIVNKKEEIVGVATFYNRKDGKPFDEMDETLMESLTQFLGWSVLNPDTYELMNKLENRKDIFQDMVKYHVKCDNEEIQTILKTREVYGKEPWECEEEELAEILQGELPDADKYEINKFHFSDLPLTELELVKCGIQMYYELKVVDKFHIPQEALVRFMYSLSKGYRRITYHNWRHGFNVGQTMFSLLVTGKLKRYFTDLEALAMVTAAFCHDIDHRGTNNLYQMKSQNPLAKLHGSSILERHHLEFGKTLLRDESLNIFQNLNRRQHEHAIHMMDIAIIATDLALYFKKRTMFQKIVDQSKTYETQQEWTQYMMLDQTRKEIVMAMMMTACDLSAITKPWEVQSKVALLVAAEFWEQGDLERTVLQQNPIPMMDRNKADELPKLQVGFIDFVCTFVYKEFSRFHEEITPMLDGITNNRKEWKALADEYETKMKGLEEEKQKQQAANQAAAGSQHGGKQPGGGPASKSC
T10 sequence (P23439 2-850 limits assumed): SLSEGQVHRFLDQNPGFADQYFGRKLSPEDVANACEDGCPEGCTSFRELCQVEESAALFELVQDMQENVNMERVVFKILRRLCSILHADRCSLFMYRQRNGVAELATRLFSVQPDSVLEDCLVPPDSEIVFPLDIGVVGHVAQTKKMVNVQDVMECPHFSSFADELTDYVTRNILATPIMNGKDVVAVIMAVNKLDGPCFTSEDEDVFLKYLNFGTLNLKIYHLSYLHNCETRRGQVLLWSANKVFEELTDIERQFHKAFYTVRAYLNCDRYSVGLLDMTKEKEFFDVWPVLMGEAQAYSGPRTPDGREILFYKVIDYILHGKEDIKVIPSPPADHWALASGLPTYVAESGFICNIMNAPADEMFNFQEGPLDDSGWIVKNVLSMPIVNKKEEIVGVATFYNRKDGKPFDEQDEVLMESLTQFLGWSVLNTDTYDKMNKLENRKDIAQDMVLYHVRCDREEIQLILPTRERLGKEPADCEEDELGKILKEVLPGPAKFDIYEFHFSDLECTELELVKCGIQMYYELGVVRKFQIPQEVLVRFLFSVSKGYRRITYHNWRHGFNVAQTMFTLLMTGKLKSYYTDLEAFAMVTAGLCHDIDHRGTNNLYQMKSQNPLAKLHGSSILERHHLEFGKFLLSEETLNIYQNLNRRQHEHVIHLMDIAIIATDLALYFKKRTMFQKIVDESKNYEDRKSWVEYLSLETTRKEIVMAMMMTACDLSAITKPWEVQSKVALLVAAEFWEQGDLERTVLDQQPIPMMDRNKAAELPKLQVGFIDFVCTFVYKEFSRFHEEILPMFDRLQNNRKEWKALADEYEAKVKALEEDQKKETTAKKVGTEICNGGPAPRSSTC
Description: as §1

PDE11A4 = molecular target: T11, PDE11A4 (Homo sapiens, UniProt Q9HCR9); test: as above; assay type: biochemical; conditions: 1 μM of MTP38; human recombinant; read-out: Percent inhibition
T11 construct: purchased Eurofins Panlabs Discovery Services (Taiwan)
T11 sequence (Q9HCR9 whole entry): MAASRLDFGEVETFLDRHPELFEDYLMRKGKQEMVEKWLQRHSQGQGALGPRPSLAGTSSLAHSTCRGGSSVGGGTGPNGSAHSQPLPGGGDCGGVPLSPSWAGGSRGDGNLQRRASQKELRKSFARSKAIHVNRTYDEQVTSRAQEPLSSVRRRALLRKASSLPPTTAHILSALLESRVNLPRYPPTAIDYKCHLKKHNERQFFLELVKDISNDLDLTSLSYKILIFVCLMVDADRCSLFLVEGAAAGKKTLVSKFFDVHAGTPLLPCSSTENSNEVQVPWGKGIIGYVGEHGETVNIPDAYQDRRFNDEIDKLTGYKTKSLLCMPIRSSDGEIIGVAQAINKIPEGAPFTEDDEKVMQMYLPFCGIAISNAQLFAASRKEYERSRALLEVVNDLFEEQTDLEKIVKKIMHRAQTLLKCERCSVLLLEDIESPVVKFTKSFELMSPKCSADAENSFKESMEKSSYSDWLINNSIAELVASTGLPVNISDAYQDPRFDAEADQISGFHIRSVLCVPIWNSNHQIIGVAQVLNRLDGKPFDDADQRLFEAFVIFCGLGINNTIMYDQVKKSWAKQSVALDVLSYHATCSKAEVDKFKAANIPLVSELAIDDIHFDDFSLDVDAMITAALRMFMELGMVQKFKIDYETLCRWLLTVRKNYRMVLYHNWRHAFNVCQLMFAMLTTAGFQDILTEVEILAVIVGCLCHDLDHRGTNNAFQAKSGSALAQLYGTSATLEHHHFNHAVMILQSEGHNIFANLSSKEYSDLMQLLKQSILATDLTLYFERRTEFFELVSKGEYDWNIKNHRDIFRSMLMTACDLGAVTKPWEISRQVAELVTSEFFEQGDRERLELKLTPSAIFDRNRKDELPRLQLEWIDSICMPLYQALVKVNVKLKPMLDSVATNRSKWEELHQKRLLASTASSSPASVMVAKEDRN
Description: as §1

PDE7B = molecular target: T12, PDE7B (Homo sapiens, UniProt Q9NP56); test: as above; assay type: biochemical
T12 construct: purchased Eurofins Panlabs Discovery Services (Taiwan)
T12 sequence (Q9NP56 whole entry): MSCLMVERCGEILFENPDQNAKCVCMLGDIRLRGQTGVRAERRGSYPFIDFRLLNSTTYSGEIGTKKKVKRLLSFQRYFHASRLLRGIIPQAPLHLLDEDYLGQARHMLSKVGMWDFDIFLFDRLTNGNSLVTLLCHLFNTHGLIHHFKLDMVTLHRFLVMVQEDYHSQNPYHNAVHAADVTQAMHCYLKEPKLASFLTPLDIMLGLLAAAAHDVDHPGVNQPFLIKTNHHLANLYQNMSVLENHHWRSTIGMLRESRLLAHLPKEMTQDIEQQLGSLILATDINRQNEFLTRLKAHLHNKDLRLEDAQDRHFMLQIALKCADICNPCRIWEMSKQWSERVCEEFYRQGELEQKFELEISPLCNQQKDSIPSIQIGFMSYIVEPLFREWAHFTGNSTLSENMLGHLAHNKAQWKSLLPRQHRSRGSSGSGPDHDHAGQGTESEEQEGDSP
Description: as §1

PDE5A = molecular target: T13, PDE5A (Homo sapiens, UniProt O76074); test: as above; assay type: biochemical; conditions: 1 μM of MTP38; human recombinant; read-out: Percent inhibition
T13 construct: purchased Eurofins Panlabs Discovery Services (Taiwan)
Description: as §1

Adrenergic α1A = molecular target: T14, Adrenergic α1A (Rattus norvegicus, UniProt P43140); test: off-target screen panel; assay type: binding; conditions: Rat submaxillary gland, [^3H]Prazosin
T14 construct: purchased Eurofins Panlabs Discovery Services (Taiwan)
T14 sequence (P43140 whole entry): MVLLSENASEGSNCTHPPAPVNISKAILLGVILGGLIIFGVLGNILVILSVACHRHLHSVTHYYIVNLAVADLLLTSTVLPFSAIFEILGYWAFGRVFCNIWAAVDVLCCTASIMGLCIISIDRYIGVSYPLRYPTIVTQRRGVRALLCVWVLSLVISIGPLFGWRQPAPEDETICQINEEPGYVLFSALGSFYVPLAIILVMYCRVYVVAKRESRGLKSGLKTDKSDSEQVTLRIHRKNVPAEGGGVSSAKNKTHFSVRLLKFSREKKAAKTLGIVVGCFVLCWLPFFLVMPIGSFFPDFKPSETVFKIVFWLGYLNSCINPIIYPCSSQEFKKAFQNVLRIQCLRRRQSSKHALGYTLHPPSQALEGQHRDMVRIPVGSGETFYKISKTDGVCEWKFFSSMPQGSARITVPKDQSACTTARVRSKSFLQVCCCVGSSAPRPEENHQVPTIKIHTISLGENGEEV

Melatonin MT1 = molecular target: T15, Melatonin MT1 (Homo sapiens, UniProt P48039); test: off-target screen panel; assay type: binding; conditions: Human recombinant, [^125I]2-Iodomelatonin
T15 construct: purchased Eurofins Panlabs Discovery Services (Taiwan)

[1] = system: Glutamate, NMDA, Phencyclidine; test: off-target screen panel; assay type: binding; conditions: Rat cerebral cortex, [^3H]TCP
Potassium Channel [KATP] = test: off-target screen panel; assay type: binding; conditions: Hamster pancreatic HIT-T15 beta cells, [^3H]Glyburide
[2] = molecular target: T16, Nicotinic Acetylcholine α1, Bungarotoxin (Homo sapiens, UniProt P02708+P07510+Q07001); test: off-target screen panel; assay type: binding; conditions: read-out: Inhibition (%) at 1 μM
T16 construct: purchased Eurofins Panlabs Discovery Services (Taiwan)

Adrenergic α1D = molecular target: T17, Adrenergic α1D (Homo sapiens, UniProt P25100); test: off-target screen panel; assay type: binding; conditions: Human recombinant, [^3H]Prazosin
T17 construct: purchased Eurofins Panlabs Discovery Services (Taiwan)

## C[C@@H]1CC[C@H](C)N(c2nnc3c(N)ncc(C#N)n23)C1 (relative stereo) [MTP38, 8-amino-3-(2S*,5R*-dimethyl-1-piperidyl)-[1,2,4]triazolo[4,3-a]pyrazine-5-carbonitrile]
67 non-PDE molecules
  inhibitions at 1 μM of the 67 non-PDE molecules tested: less than 50%
Adrenergic α2A
  inhibition at 1 µM: 4%
Endothelin ETB
  inhibition at 1 µM: 3%
PDE7
  effect of blocker on striatal radioactivity of [^11C]MTP38: reduced the striatal radioactivity
Glutamate, NMDA, Glycine
  inhibition at 1 µM: -15%
Muscarinic M3
  inhibition at 1 µM: -21%
PDE3A
  inhibition at 1 µM: < 50%
PDE1A
  inhibition at 1 µM: < 50%
PDE7A
  IC50: 9.81 nM
PDE9A2
  inhibition at 1 µM: < 50%
PDE8A1
  inhibition at 1 µM: < 50%
PDE2A
  IC50: > 100 nM and 114 nM
PDE6
  inhibition at 1 µM: < 50%
PDE11A4
  inhibition at 1 µM: < 50%
PDE7B; from IC50 1.21 nM, [S] 100 nM, Km 30–70 nM, read-out: Ki estimated by Cheng-Prusoff equation
  Ki: 0.28 to 0.5 nM
PDE7B; human recombinant, geometric mean of three independent experiments
  IC50: 1.21 nM
PDE5A
  inhibition at 1 µM: < 50%
Adrenergic α1A
  inhibition at 1 µM: 8%
Melatonin MT1
  inhibition at 1 µM: 7%
[1]
  Inhibition (%) at 1 μM: -5%
Potassium Channel [KATP]
  Inhibition (%) at 1 μM: 5%
[2]
  inhibition at 1 µM: 15%
Adrenergic α1D
  inhibition at 1 µM: -3%

— article PMC8426238, “Synthesis and preclinical evaluation of [^11C]MTP38 as a novel PET ligand for phosphodiesterase 7 in the brain” (European Journal of Nuclear Medicine and Molecular Imaging, 2021)
